Measurements taken from patent US12398154B2, “Azaquinazoline pan-KRas inhibitors” (Mirati Therapeutics, Inc., priority 2020, dated 2025).

Key:
Experiment in all cases: biochemical
[1] = target: KRas G12V (Homo sapiens, UniProt P01116, G12V);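 also: KRas binding measured by TR-FRET displacement at room temperature, IC50 fitted from percent of control values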
Description: (§1) The ability of a compound to bind to KRas was measured using a TR-FRET displacement assay. […] After a 60-minute incubation at room temperature, the reaction was measured using a BMG LABTECH CLARIO star Plus via TR-FRET. […] The POC values were fit to a 4-parameter IC50 equation and the IC50 value reported.

[2] = target: KRas G12D (Homo sapiens, UniProt P01116, G12D);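 also: TR-FRET displacement binding assay on KRas, read after a one-hour incubation at room temperature, IC50 fitted from percent-of-control values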
Description: as §1

[3] = target: KRas G12R (Homo sapiens, UniProt P01116, G12R);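 also: TR-FRET displacement assay of compound binding to KRas, read after one hour at room temperature, potency from a four-parameter fit of percent-of-control values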
Chain of KRas G12R (P01116 1-169 isoform P01116-2 G12R): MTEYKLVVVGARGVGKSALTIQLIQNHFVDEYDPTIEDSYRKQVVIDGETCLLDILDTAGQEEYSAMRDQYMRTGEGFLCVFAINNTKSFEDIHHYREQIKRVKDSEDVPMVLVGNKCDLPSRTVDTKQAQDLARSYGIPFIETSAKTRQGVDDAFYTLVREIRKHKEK
Description: as §1

Chain of KRas G12V (P01116 1-169 isoform P01116-2 G12V): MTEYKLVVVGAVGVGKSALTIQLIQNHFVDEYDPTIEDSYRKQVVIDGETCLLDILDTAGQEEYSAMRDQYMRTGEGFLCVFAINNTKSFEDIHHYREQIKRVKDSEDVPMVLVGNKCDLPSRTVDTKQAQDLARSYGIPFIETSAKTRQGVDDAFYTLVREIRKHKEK
Chain of KRas G12D (P01116 1-169 isoform P01116-2 G12D): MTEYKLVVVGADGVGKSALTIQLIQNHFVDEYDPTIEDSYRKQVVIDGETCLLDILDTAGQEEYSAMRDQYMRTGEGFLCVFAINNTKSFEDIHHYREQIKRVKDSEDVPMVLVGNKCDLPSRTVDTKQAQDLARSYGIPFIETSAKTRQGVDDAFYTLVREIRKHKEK

Compound: CC1(O)CCCN(c2nc(OCC34CCCN3CCC4)nc3c(F)c(-c4cccc5scnc45)ncc23)C1 (stereo not drawn) [Example 68, 1-(7-(benzo[d]thiazol-4-yl)-8-fluoro-2-((hexahydro-1H-pyrrolizin-7a-yl)methoxy)pyrido[4,3-d]pyrimidin-4-yl)-3-methylpiperidin-3-ol]
- IC50 [1]: 17 µM
- IC50 [2]: 11.6 µM
- IC50 [3]: 27.6 µM

Compound: CC1(O)CCCN(c2nc(OCC34CCCN3CCC4)nc3c(F)c(-c4cccc5ccccc45)ncc23)C1 (stereo not drawn) [Example 69, 1-(8-fluoro-2-((hexahydro-1H-pyrrolizin-7a-yl)methoxy)-7-(naphthalen-1-yl)pyrido[4,3-d]pyrimidin-4-yl)-3-methylpiperidin-3-ol]
- IC50 [1]: 2.73 µM
- IC50 [2]: 2.09 µM
- IC50 [3]: 4.17 µM

Compound: O=C1NCCC2(CCCN(c3nc(OCC45CCCN4CCC5)nc4c(F)c(-c5cccc6cccc(F)c56)ncc34)C2)N1 (stereo not drawn) [Example 72, 8-(8-fluoro-7-(8-fluoronaphthalen-1-yl)-2-((tetrahydro-1H-pyrrolizin-7a(5H)-yl)methoxy)pyrido[4,3-d]pyrimidin-4-yl)-1,3,8-triazaspiro[5.5]undecan-2-one]
- IC50 [1]: 10.8 µM
- IC50 [2]: 14 µM
- IC50 [3]: 14 µM

Compound: OC1CC2CC(C1)N(c1nc(OCC34CCCN3CCC4)nc3c(F)c(-c4cccc5cccc(F)c45)ncc13)C2 (stereo not drawn) [Example 76, 6-(8-fluoro-7-(8-fluoronaphthalen-1-yl)-2-((hexahydro-1H-pyrrolizin-7a-yl)methoxy)pyrido[4,3-d]pyrimidin-4-yl)-6-azabicyclo[3.2.1]octan-3-ol]
- IC50 [1]: 3.15 µM
- IC50 [2]: 15.5 µM
- IC50 [3]: 8.87 µM

Compound: CN(Cc1cccnc1N)c1nc(OCC23CCCN2CCC3)nc2c(F)c(-c3cccc4cccc(F)c34)ncc12 [Example 79, N-((2-aminopyridin-3-yl)methyl)-8-fluoro-7-(8-fluoronaphthalen-1-yl)-N-methyl-2-((tetrahydro-1H-pyrrolizin-7a(5H)-yl)methoxy)pyrido[4,3-d]pyrimidin-4-amine]
- IC50 [1]: 0.539 µM
- IC50 [2]: 15.5 µM
- IC50 [3]: 0.65 µM

Compound: Fc1c(-c2cccc3cccc(Cl)c23)ncc2c(N3CCCC(c4c[nH]nn4)C3)nc(OCC34CCCN3CCC4)nc12 (stereo not drawn) [Example 108, 4-(3-(1H-1,2,3-triazol-4-yl)piperidin-1-yl)-7-(8-chloronaphthalen-1-yl)-8-fluoro-2-((tetrahydro-1H-pyrrolizin-7a(5H)-yl)methoxy)pyrido[4,3-d]pyrimidine]
- IC50 [1]: 8.1 µM
- IC50 [2]: 19.7 µM
- IC50 [3]: 4.19 µM

Compound: CC1(O)CCCN(c2nc(OCC34CCCN3CCC4)nc3c(F)c(-c4cc(O)cc5ccccc45)ncc23)C1 (stereo not drawn) [Example 151]
- IC50 [1]: 0.008 µM
- IC50 [2]: 0.012 µM
- IC50 [3]: 0.009 µM

Compound: CCc1c(F)ccc2cc(O)cc(-c3ncc4c(N(C)Cc5cn[nH]c5)nc(OC[C@@]56CCCN5C[C@H](F)C6)nc4c3F)c12 [Example 163, 4-(4-(((1H-pyrazol-4-yl)methyl)(methyl)amino)-8-fluoro-2-(((2R,7aS)-2-fluorohexahydro-1H-pyrrolizin-7a-yl)methoxy)pyrido[4,3-d]pyrimidin-7-yl)-5-ethyl-6-fluoronaphthalen-2-ol]
- IC50 [1]: 0.014 µM
- IC50 [2]: 0.095 µM
- IC50 [3]: 0.017 µM

Compound: CN1CCC[C@H]1COc1nc(N2CCOCC2)c2cnc(-c3cc(O)cc4ccccc34)c(F)c2n1 [Example 195, (S)-4-(8-fluoro-2-((1-methylpyrrolidin-2-yl)methoxy)-4-morpholinopyrido[4,3-d]pyrimidin-7-yl)naphthalen-2-ol]
- IC50 [1]: 4.91 µM
- IC50 [2]: 16.6 µM
- IC50 [3]: 1.71 µM

Compound: CN(CCC(N)=O)c1nc(OCC23CCCN2CCC3)nc2c(F)c(-c3cccc4cccc(F)c34)ncc12 [Example 226, 3-((8-fluoro-7-(8-fluoronaphthalen-1-yl)-2-((hexahydro-1H-pyrrolizin-7a-yl)methoxy)pyrido[4,3-d]pyrimidin-4-yl)(methyl)amino)propanamide]
- IC50 [1]: 14.1 µM
- IC50 [2]: 6.07 µM
- IC50 [3]: 51.9 µM

Compound: Nc1n[nH]c(CCNc2nc(OCC34CCCN3CCC4)nc3c(F)c(-c4cccc5cccc(F)c45)ncc23)n1 [Example 238, N-(2-(3-amino-1H-1,2,4-triazol-5-yl)ethyl)-8-fluoro-7-(8-fluoronaphthalen-1-yl)-2-((hexahydro-1H-pyrrolizin-7a-yl)methoxy)pyrido[4,3-d]pyrimidin-4-amine]
- IC50 [1]: 19.3 µM
- IC50 [2]: ≥ 100 µM
- IC50 [3]: 9.18 µM

Compound: NC(=O)NC1CCCN(c2nc(OCC34CCCN3CCC4)nc3c(F)c(-c4cccc5cccc(F)c45)ncc23)C1 (stereo not drawn) [Example 241, 1-(1-(8-fluoro-7-(8-fluoronaphthalen-1-yl)-2-((hexahydro-1H-pyrrolizin-7a-yl)methoxy)pyrido[4,3-d]pyrimidin-4-yl)piperidin-3-yl)urea]
- IC50 [1]: 13.6 µM
- IC50 [2]: 17.2 µM
- IC50 [3]: 8.62 µM

Compound: Fc1c(-c2cccc3cccc(F)c23)ncc2c(N3CCCn4nccc4C3)nc(OCC34CCCN3CCC4)nc12 [Example 245, 4-(7,8-dihydro-4H-pyrazolo[1,5-a][1,4]diazepin-5(6H)-yl)-8-fluoro-7-(8-fluoronaphthalen-1-yl)-2-((hexahydro-1H-pyrrolizin-7a-yl)methoxy)pyrido[4,3-d]pyrimidine]
- IC50 [1]: 11.7 µM
- IC50 [2]: 2.99 µM
- IC50 [3]: 9.83 µM

Compound: Fc1c(-c2cccc3cccc(F)c23)ncc2c(N3CCCc4ncccc4C3)nc(OCC34CCCN3CCC4)nc12 [Example 246, 6-(8-fluoro-7-(8-fluoronaphthalen-1-yl)-2-((hexahydro-1H-pyrrolizin-7a-yl)methoxy)pyrido[4,3-d]pyrimidin-4-yl)-6,7,8,9-tetrahydro-5H-pyrido[3,2-c]azepine]
- IC50 [1]: 22.1 µM
- IC50 [2]: 6.41 µM
- IC50 [3]: 11.3 µM

Compound: NS(=O)(=O)OC1CCCN(c2nc(OCC34CCCN3CCC4)nc3c(F)c(-c4cccc5cccc(F)c45)ncc23)C1 (stereo not drawn) [Example 248, 1-(8-fluoro-7-(8-fluoronaphthalen-1-yl)-2-((tetrahydro-1H-pyrrolizin-7a(5H)-yl)methoxy)pyrido[4,3-d]pyrimidin-4-yl)piperidin-3-yl sulfamate]
- IC50 [1]: 9.78 µM
- IC50 [2]: 6.81 µM
- IC50 [3]: 10.5 µM

Compound: Cc1cc2n(n1)CCCN(c1nc(OCC34CCCN3CCC4)nc3c(F)c(-c4cccc5cccc(F)c45)ncc13)C2 [Example 254, 8-fluoro-7-(8-fluoronaphthalen-1-yl)-2-((hexahydro-1H-pyrrolizin-7a-yl)methoxy)-4-(2-methyl-7,8-dihydro-4H-pyrazolo[1,5-a][1,4]diazepin-5(6H)-yl)pyrido[4,3-d]pyrimidine]
- IC50 [1]: 10.8 µM
- IC50 [2]: 2.84 µM
- IC50 [3]: 7.91 µM

Compound: OC1CN(c2nc(OCC34CCCN3CCC4)nc3c(F)c(-c4cccc5cccc(F)c45)ncc23)Cc2ccnn2C1 (stereo not drawn) [Example 255, 5-(8-fluoro-7-(8-fluoronaphthalen-1-yl)-2-((hexahydro-1H-pyrrolizin-7a-yl)methoxy)pyrido[4,3-d]pyrimidin-4-yl)-5,6,7,8-tetrahydro-4H-pyrazolo[1,5-a][1,4]diazepin-7-ol]
- IC50 [1]: 11 µM
- IC50 [2]: 6.23 µM
- IC50 [3]: 15.1 µM

Compound: CN(C)c1cc2n(n1)CCCN(c1nc(OCC34CCCN3CCC4)nc3c(F)c(-c4cccc5cccc(F)c45)ncc13)C2 [Example 264, 5-(8-fluoro-7-(8-fluoronaphthalen-1-yl)-2-((hexahydro-1H-pyrrolizin-7a-yl)methoxy)pyrido[4,3-d]pyrimidin-4-yl)-N,N-dimethyl-5,6,7,8-tetrahydro-4H-pyrazolo[1,5-a][1,4]diazepin-2-amine]
- IC50 [1]: 13.6 µM
- IC50 [2]: 8.16 µM
- IC50 [3]: 9.86 µM

Compound: O=C1CC2(CCCCN(c3nc(OCC45CCCN4CCC5)nc4c(F)c(-c5cccc6cccc(F)c56)ncc34)C2)N1 (stereo not drawn) [Example 266, 6-(8-fluoro-7-(8-fluoronaphthalen-1-yl)-2-((hexahydro-1H-pyrrolizin-7a-yl)methoxy)pyrido[4,3-d]pyrimidin-4-yl)-1,6-diazaspiro[3.6]decan-2-one]
- IC50 [1]: 5.25 µM
- IC50 [2]: 6.06 µM
- IC50 [3]: 13.9 µM

Compound: OC[C@@H]1CCCN(c2nc(OCC34CCCN3CCC4)nc3c(F)c(-c4cccc5cccc(F)c45)ncc23)C1 [Example 268, (R)-(1-(8-fluoro-7-(8-fluoronaphthalen-1-yl)-2-((hexahydro-1H-pyrrolizin-7a-yl)methoxy)pyrido[4,3-d]pyrimidin-4-yl)piperidin-3-yl)methanol]
- IC50 [1]: 6.44 µM
- IC50 [2]: 11.3 µM
- IC50 [3]: 8.88 µM

Compound: O=S1(=O)CCC(Nc2nc(OCC34CCCN3CCC4)nc3c(F)c(-c4cccc5cccc(F)c45)ncc23)C1 (stereo not drawn) [Example 279, 3-((8-fluoro-7-(8-fluoronaphthalen-1-yl)-2-((hexahydro-1H-pyrrolizin-7a-yl)methoxy)pyrido[4,3-d]pyrimidin-4-yl)amino)tetrahydrothiophene 1,1-dioxide]
- IC50 [1]: 3.39 µM
- IC50 [2]: 34.3 µM
- IC50 [3]: 3.62 µM

Compound: CCc1cccc2cccc(-c3ncc4c(N5CCCOCC5)nc(OCC56CCCN5CCC6)nc4c3F)c12 [Example 334, 4-(7-(8-ethylnaphthalen-1-yl)-8-fluoro-2-((hexahydro-1H-pyrrolizin-7a-yl)methoxy)pyrido[4,3-d]pyrimidin-4-yl)-1,4-oxazepane]
- IC50 [1]: 0.699 µM
- IC50 [2]: 1.48 µM
- IC50 [3]: 0.738 µM

Compound: O=C1CC2CCN(c3nc(OCC45CCCN4CCC5)nc4c(F)c(-c5cccc6cccc(F)c56)ncc34)CC2C(=O)N1 (stereo not drawn) [Example 335, 7-(8-fluoro-7-(8-fluoronaphthalen-1-yl)-2-((hexahydro-1H-pyrrolizin-7a-yl)methoxy)pyrido[4,3-d]pyrimidin-4-yl)hexahydro-2,7-naphthyridine-1,3(2H,4H)-dione]
- IC50 [1]: ≥ 100 µM
- IC50 [2]: 7.83 µM
- IC50 [3]: 84.5 µM

Compound: CCc1c(F)ccc2cc(O)cc(-c3ncc4c(NCCC5CCNC5=O)nc(OC[C@@]56CCCN5C[C@H](F)C6)nc4c3F)c12 (stereo partly drawn) [Example 375, 3-(2-((7-(8-ethyl-7-fluoro-3-hydroxynaphthalen-1-yl)-8-fluoro-2-(((2R,7aS)-2-fluorohexahydro-1H-pyrrolizin-7a-yl)methoxy)pyrido[4,3-d]pyrimidin-4-yl)amino)ethyl)pyrrolidin-2-one]
- IC50 [1]: 0.008 µM
- IC50 [2]: 0.044 µM
- IC50 [3]: 0.009 µM
